Source: PubChem BioAssay (NCI)
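The compound was tested at five concentrations on cells cultured in 96-well plates, with a 48-hour exposure period. GI50 is the concentration that inhibits growth by half. The concentration for full growth arrest is given as TGI.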

Key:
Test in all cases: DTP human tumour cell line panel, 48 h
[1] = tested on: SK-MEL-5 melanoma
[2] = tested on: LOX IMVI melanoma
[3] = tested on: SK-OV-3 ovarian
[4] = tested on: NCI-H23 lung
[5] = tested on: UO-31 renal
[6] = tested on: CAKI-1 renal
[7] = tested on: RPMI-8226 leukemia
[8] = tested on: HCT-116 colon
[9] = tested on: HS 578T breast
[10] = tested on: T-47D breast
[11] = tested on: SN12C renal
[12] = tested on: SF-539 CNS
[13] = tested on: SR leukemia
[14] = tested on: IGROV1 ovarian
[15] = tested on: EKVX NSCLC
[16] = tested on: OVCAR-4 ovarian
[17] = tested on: PC-3 prostate
[18] = tested on: A498 renal
[19] = tested on: A549 NSCLC
[20] = tested on: U251 CNS
[21] = tested on: MOLT-4 leukemia
[22] = tested on: HOP-62 NSCLC
[23] = tested on: COLO 205 colon
[24] = tested on: NCI-H226 lung
[25] = tested on: TK-10 renal
[26] = tested on: NCI-H522 lung
[27] = tested on: OVCAR-3 ovarian
[28] = tested on: K-562 leukemia

Structure (SMILES): N#Cc1ccc(N2Cc3cc(Cl)ccc3OC3=C2C(=O)N(Cc2ccccc2)C3=O)cc1
- GI50 [1]: 1840 nM
- TGI [1]: 3510 nM
- GI50 [2]: 1470 nM
- TGI [2]: 2850 nM
- GI50 [3]: 10900 nM
- TGI [3]: 31500 nM
- GI50 [4]: 2140 nM
- TGI [4]: 5340 nM
- GI50 [5]: 1320 nM
- TGI [5]: 2610 nM
- GI50 [6]: 1390 nM
- TGI [6]: 2780 nM
- GI50 [7]: 280 nM
- TGI [7]: 1060 nM
- GI50 [8]: 284 nM
- TGI [8]: 1250 nM
- GI50 [9]: 2620 nM
- TGI [9]: 9250 nM
- GI50 [10]: 714 nM
- TGI [10]: 2580 nM
- GI50 [11]: 1510 nM
- TGI [11]: 3140 nM
- GI50 [12]: 1700 nM
- TGI [12]: 3190 nM
- GI50 [13]: 242 nM
- TGI [13]: 828 nM
- GI50 [14]: 2190 nM
- TGI [14]: 4880 nM
- GI50 [15]: 2020 nM
- TGI [15]: 4920 nM
- GI50 [16]: 1410 nM
- TGI [16]: 3260 nM
- GI50 [17]: 1410 nM
- TGI [17]: 3520 nM
- GI50 [18]: 1830 nM
- TGI [18]: 3960 nM
- GI50 [19]: 10100 nM
- TGI [19]: 26700 nM
- GI50 [20]: 1560 nM
- TGI [20]: 2980 nM
- GI50 [21]: 250 nM
- TGI [21]: 818 nM
- GI50 [22]: 2350 nM
- TGI [22]: 6120 nM
- GI50 [23]: 1210 nM
- TGI [23]: 2920 nM
- GI50 [24]: 1930 nM
- TGI [24]: 6780 nM
- GI50 [25]: 1450 nM
- TGI [25]: 2770 nM
- GI50 [26]: 250 nM
- TGI [26]: 620 nM
- GI50 [27]: 442 nM
- TGI [27]: 1540 nM
- GI50 [28]: 359 nM
- TGI [28]: 2020 nM
